# Measurements as given in patent publication US12473277B2, “Solid forms of a modulator of hemoglobin” (GLOBAL BLOOD THERAPEUTICS, INC., priority 2021, dated 2025).
# Structures can show the parent of a compound that is named as a salt.
# What was measured:
# [1] = Physical stability of solid forms under humidity, temperature or vacuum stress (XRPD/observation); format: physicochemical
# Description: XRPD figures were generated using SSCI Pattern Match 3.0.4, unvalidated software. XRPD patterns were collected with a PANalytical X'Pert PRO MPD or a PANalytical Empyrean diffractometer using an incident beam of Cu radiation produced using an Optix long, fine-focus source. An elliptically graded multilayer mirror was used to focus Cu Kα X-rays through the specimen and onto the detector. Prior to the analysis, a silicon specimen (NIST SRM 640e or NIST SRM 6400 was analyzed to verify the observed position of the Si 111 peak is consistent with the NIST-certified position. A specimen of the sample was sandwiched between 3-μm-thick films and analyzed in transmission geometry. A beam-stop, short antiscatter extension, and antiscatter knife edge were used to minimize the background generated by air. Soller slits for the incident and diffracted beams were used to minimize broadening and asymmetry from axial divergence. Diffraction patterns were collected using a scanning position-sensitive detector (X'Celerator) located 240 mm from the specimen and Data Collector software v. 2.2b or v. 5.5.
# [2] = Dynamic vapor sorption/desorption (DVS) isotherm; format: physicochemical; settings: for hygroscopicity indicated by DVS isotherm: 5% to 95% RH, 10% RH increments, nitrogen purge; for weight gain and loss through the sorption/desorption cycle / weight gain through the sorption cycle / weight loss upon desorption: DVS; for weight gain and loss through the sorption/desorption cycle / weight gain through the sorption cycle: 5 to 95% RH; for material recovered from the DVS experiment, by XRPD: after DVS sorption/desorption cycle; for weight loss upon desorption: 95 to 5% RH
# Description: Automated vapor sorption (VS) data were collected on a Surface Measurement System DVS Intrinsic instrument or a VTI SGA-100 instrument. Samples were not dried prior to analysis. Sorption and desorption data were collected over a range from 5% to 95% relative humidity (RH) at 10% RH increments under a nitrogen purge. The equilibrium criterion used for analysis was less than 0.0100% weight change in 5 minutes with a maximum equilibration time of 3 hours. Data were not corrected for the initial moisture content of the samples.
# [3] = Binary interconversion slurry experiments between Compound I Form I and Compound I Material II; format: physicochemical; settings: room temperature slurries
# Description: Binary interconversion slurry experiments between Compound I Form I and Compound I Material II in different solvent systems at room temperature are summarized in Table 2. Saturated solutions were generated and then added to mixtures composed of approximately equivalent quantities of the two polymorphs. The samples were slurried for several days and the solids harvested and analyzed by XRPD.
# [4] = physchem; settings: water
molecule,measurement,setting,value
"CCS(=O)(=O)O.O=Cc1c(O)cccc1OC[C@@H]1COCCN1C(=O)c1cccnc1CCO [Compound I Esylate Form A, (S)-2-hydroxy-6-((4-(2-(2-hydroxyethyl)nicotinoyl)morpholin-3-yl)methoxy)benzaldehyde esylate]",physical stability under vacuum (XRPD),[1]; 44° C. under vacuum,not physically stable
"CCS(=O)(=O)O.O=Cc1c(O)cccc1OC[C@@H]1COCCN1C(=O)c1cccnc1CCO [Compound I Esylate Form B, (S)-2-hydroxy-6-((4-(2-(2-hydroxyethyl)nicotinoyl)morpholin-3-yl)methoxy)benzaldehyde esylate]",physical stability under high humidity,"[1]; 90% relative humidity, ambient temperature",deliquesced
"O=Cc1c(O)cccc1OC[C@@H]1COCCN1C(=O)c1cccnc1CCO [Compound I Form I, (S)-2-hydroxy-6-((4-(2-(2-hydroxyethyl)nicotinoyl)morpholin-3-yl)methoxy)benzaldehyde]",hygroscopicity indicated by DVS isotherm,[2],low hygroscopicity
same,weight gain and loss through the sorption/desorption cycle,[2],0.7%
same,"material recovered from the DVS experiment, by XRPD",[2],identified as Compound I Form I
same,relative thermodynamic stability from interconversion studies,[3],most thermodynamically stable form relative to Material II
O=Cc1c(O)cccc1OC[C@@H]1COCCN1C(=O)c1cccnc1CCO [Compound I HCl Form A],hygroscopicity indicated by DVS isotherm,[2],significant hygroscopicity
same,weight gain through the sorption cycle,[2],3%
same,weight loss upon desorption,[2],3.3%
same,"material recovered from the DVS experiment, by XRPD",[2],remained Compound I HCl Form A
same,"physical stability, XRPD pattern after stress",[1]; 40° C./75% RH for 27 days,no changes were observed in the XRPD pattern
"O=Cc1c(O)cccc1OC[C@@H]1COCCN1C(=O)c1cccnc1CCO [Compound I Material II, (S)-2-hydroxy-6-((4-(2-(2-hydroxyethyl)nicotinoyl)morpholin-3-yl)methoxy)benzaldehyde]",hygroscopicity indicated by DVS isotherm,[2],significant hygroscopicity above 85% RH
same,weight gain and loss through the sorption/desorption cycle,[2],approximately 3.4%
same,"material recovered from the DVS experiment, by XRPD",[2],identified as Compound I Material II
"O=Cc1c(O)cccc1OC[C@@H]1COCCN1C(=O)c1cccnc1CCO.O=S(=O)(O)c1cccc2c(S(=O)(=O)O)cccc12 [Compound I Napadisylate Form A, (S)-2-hydroxy-6-((4-(2-(2-hydroxyethyl)nicotinoyl)morpholin-3-yl)methoxy)benzaldehyde napadisylate]",physical stability under vacuum (XRPD),"[1]; 43° C. under vacuum, within 4 days",not physically stable
"O=C(O)C(=O)O.O=Cc1c(O)cccc1OC[C@@H]1COCCN1C(=O)c1cccnc1CCO [Compound I Oxalate Form B, (S)-2-hydroxy-6-((4-(2-(2-hydroxyethyl)nicotinoyl)morpholin-3-yl)methoxy)benzaldehyde oxalate]",physical stability under high humidity (XRPD),"[1]; 90% RH, ambient temperature, 11 days",still predominately Compound I Oxalate Form B
same,solubility,[4],> 134 mg/mL
"O=Cc1c(O)cccc1OC[C@@H]1COCCN1C(=O)c1cccnc1CCO.O=S(=O)(O)O [Compound I Sulfate Form A, (S)-2-hydroxy-6-((4-(2-(2-hydroxyethyl)nicotinoyl)morpholin-3-yl)methoxy)benzaldehyde sulfate]",physical stability under vacuum (XRPD),[1]; 43° C. under vacuum for 2 days,physically stable
same,physical stability under high humidity,"[1]; 90% RH, ambient temperature, within 1 day",deliquesces
same,solubility,[4],> 87 mg/mL
"O=Cc1c(O)cccc1OC[C@@H]1COCCN1C(=O)c1cccnc1CCO [amorphous Compound I, (S)-2-hydroxy-6-((4-(2-(2-hydroxyethyl)nicotinoyl)morpholin-3-yl)methoxy)benzaldehyde]",hygroscopicity indicated by DVS isotherm,[2],significant hygroscopicity
same,weight gain through the sorption cycle,[2],approximately 10%
same,weight loss upon desorption,[2],7%
same,"material recovered from the DVS experiment, by XRPD",[2],remained amorphous
(S)-2-hydroxy-6-((4-(2-(2-hydroxyethyl)nicotinoyl)morpholin-3-yl)methoxy)benzaldehyde edisylate [Compound I Edisylate Form A],physical stability upon exposure to ambient conditions,"[1]; ambient conditions, relative humidity approximately 57%",very hygroscopic and not stable under ambient conditions
same,physical stability on drying in vacuum oven (XRPD),"[1]; damp sample, 43° C. vacuum oven",physical instability
(S)-2-hydroxy-6-((4-(2-(2-hydroxyethyl)nicotinoyl)morpholin-3-yl)methoxy)benzaldehyde edisylate [Compound I Edisylate Material B],physical stability under vacuum (XRPD),[1]; 44° C. under vacuum,additional unidentified peaks
